Results published in ChEMBL document CHEMBL1124916, “Neural networks applied to quantitative structure-activity relationship analysis” (1990).

Experiments:
[1] = Compound was evaluated for the Anti-fighting behavior.; type: functional; set-up: scale not given here
[2] = Evaluation for the Anti-pentylenetetrazole effect.; type: functional; set-up: unit not given here

Cc1ccccc1C1=NCC(=O)Nc2ccc(Cl)cc21
Anti-fighting behaviour [1]: 3.45 | Anti-pent effect [2]: 4.57

CN1C(=O)CN=C(c2ccccc2F)c2cc(F)ccc21
Anti-pent effect [2]: 3.33

CCSc1ccc2c(c1)C(c1ccccc1)=NCC(=O)N2
Anti-pent effect [2]: 3.57

NC(=O)CN1C(=O)CN=C(c2ccccc2)c2cc(Cl)ccc21
Anti-fighting behaviour [1]: 4.21 | Anti-pent effect [2]: 5.07

O=C1CN=C(c2ccccc2Br)c2cc(Cl)ccc2N1
Anti-fighting behaviour [1]: 4.85 | Anti-pent effect [2]: 5.77

O=C1CN=C(c2ccccc2)c2cc(F)ccc2N1
Anti-fighting behaviour [1]: 3.4

C=CCN1C(=O)CN=C(c2ccccc2)c2cc(C(F)(F)F)ccc21
Anti-fighting behaviour [1]: 4.54 | Anti-pent effect [2]: 5.03

O=C1CN=C(c2ccccc2F)c2cc([N+](=O)[O-])ccc2N1
Anti-fighting behaviour [1]: 5.17 | Anti-pent effect [2]: 6

C=CCN1C(=O)CN=C(c2ccccc2)c2cc(Cl)ccc21
Anti-fighting behaviour [1]: 4.49 | Anti-pent effect [2]: 5.35

CN1C(=O)CN=C(c2ccccc2C(F)(F)F)c2cc([N+](=O)[O-])ccc21
Anti-fighting behaviour [1]: 4.86 | Anti-pent effect [2]: 5.71

CN(C)CCN1C(=O)CN=C(c2ccccc2)c2cc(Cl)ccc21
Anti-fighting behaviour [1]: 3.53 | Anti-pent effect [2]: 4.73

CN1C(=O)CN=C(c2ccccc2F)c2ccccc21
Anti-fighting behaviour [1]: 3.83 | Anti-pent effect [2]: 4.53

O=C1CN=C(c2ccccc2C(F)(F)F)c2cc(C(F)(F)F)ccc2N1
Anti-fighting behaviour [1]: 4.27 | Anti-pent effect [2]: 4.97

CN1C(=O)CN=C(c2ccccc2F)c2cc(Cl)ccc21
Anti-fighting behaviour [1]: 4.78 | Anti-pent effect [2]: 5.88

O=C1CN=C(c2ccccc2C(F)(F)F)c2cc([N+](=O)[O-])ccc2N1
Anti-fighting behaviour [1]: 4.54 | Anti-pent effect [2]: 5.7

CNC(=O)CN1C(=O)CN=C(c2ccccc2)c2cc([N+](=O)[O-])ccc21
Anti-fighting behaviour [1]: 4.55 | Anti-pent effect [2]: 5.29

CN(C)CCN1C(=O)CN=C(c2ccccc2)c2cc([N+](=O)[O-])ccc21
Anti-fighting behaviour [1]: 4.25 | Anti-pent effect [2]: 4.7

CNC(=O)CN1C(=O)CN=C(c2ccccc2)c2cc(C(F)(F)F)ccc21
Anti-fighting behaviour [1]: 3.69 | Anti-pent effect [2]: 5.06

O=C1CN=C(c2ccccc2F)c2cc(Cl)ccc2N1
Anti-fighting behaviour [1]: 4.76 | Anti-pent effect [2]: 6.46

CN(C)c1ccc2c(c1)C(c1ccccc1)=NCC(=O)N2
Anti-pent effect [2]: 3.84

CN1C(=O)CN=C(c2ccccc2)c2cc(Cl)ccc21
Anti-fighting behaviour [1]: 4.45 | Anti-pent effect [2]: 5.31

O=C1CN=C(c2ccccc2Cl)c2cc([N+](=O)[O-])ccc2N1
Anti-fighting behaviour [1]: 4.2 | Anti-pent effect [2]: 6.3

C[S+]([O-])c1ccc2c(c1)C(c1ccccc1)=NCC(=O)N2 (stereo not drawn)
Anti-pent effect [2]: 4.08

CNC(=O)CN1C(=O)CN=C(c2ccccc2)c2cc(Cl)ccc21
Anti-fighting behaviour [1]: 3.63 | Anti-pent effect [2]: 5.83

CCC(C)CN1C(=O)CN=C(c2ccccc2)c2cc(Cl)ccc21 (stereo not drawn)
Anti-fighting behaviour [1]: 3.53 | Anti-pent effect [2]: 4.99

O=C1CN=C(c2ccccc2[N+](=O)[O-])c2cc([N+](=O)[O-])ccc2N1
Anti-fighting behaviour [1]: 3.91 | Anti-pent effect [2]: 5.97

CN(C)c1ccc2c(c1)C(c1ccccc1)=NCC(=O)N2C
Anti-fighting behaviour [1]: 3.86 | Anti-pent effect [2]: 4.69

N#Cc1ccc2c(c1)C(c1ccccc1F)=NCC(=O)N2
Anti-fighting behaviour [1]: 4.75 | Anti-pent effect [2]: 5.63

O=C1CN=C(c2ccccc2Cl)c2cc(Cl)ccc2N1
Anti-fighting behaviour [1]: 5.18 | Anti-pent effect [2]: 5.85

CN(C)CCCN1C(=O)CN=C(c2ccccc2F)c2cc(Cl)ccc21
Anti-fighting behaviour [1]: 3.97 | Anti-pent effect [2]: 4.76

O=C1CN=C(c2ccccc2)c2cc(Cl)ccc2N1CCCO
Anti-fighting behaviour [1]: 3.61 | Anti-pent effect [2]: 4.34

CN1C(=O)CN=C(c2ccccc2F)c2cc([N+](=O)[O-])ccc21
Anti-fighting behaviour [1]: 5.8 | Anti-pent effect [2]: 6.5

CCCCSc1ccc2c(c1)C(c1ccccc1)=NCC(=O)N2
Anti-pent effect [2]: 3.79

CN(C)CCCN1C(=O)CN=C(c2ccccc2)c2cc(Cl)ccc21
Anti-pent effect [2]: 3.38

O=C1CN=C(c2ccccc2)c2ccccc2N1
Anti-fighting behaviour [1]: 3.37

O=C1CN=C(c2ccccc2)c2cc(Cl)ccc2N1
Anti-pent effect [2]: 4.65
